Test results taken from the Kinase Knowledgebase extract (Sharma et al. 2016).

Target: MAPK14 (UniProt Q16539)
Test: p38 alpha Inhibition
Conditions: not given

MAPK14, sequence (Q16539 whole entry, looked up): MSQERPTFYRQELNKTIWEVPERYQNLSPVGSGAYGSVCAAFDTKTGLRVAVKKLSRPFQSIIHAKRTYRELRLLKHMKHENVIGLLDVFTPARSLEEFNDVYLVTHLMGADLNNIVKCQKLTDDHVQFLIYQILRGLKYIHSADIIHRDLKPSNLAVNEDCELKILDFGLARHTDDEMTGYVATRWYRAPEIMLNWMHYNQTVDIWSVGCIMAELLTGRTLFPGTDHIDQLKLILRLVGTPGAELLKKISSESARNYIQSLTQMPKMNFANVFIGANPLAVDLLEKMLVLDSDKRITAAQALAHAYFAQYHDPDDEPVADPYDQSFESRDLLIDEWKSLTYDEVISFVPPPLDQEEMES

Row | IC50 | SMILES
1 | 457 nM | c1ccc(-c2nc(Nc3ccncc3)c3ccccc3n2)cc1
2 | 114 nM | Fc1ccccc1-c1nc(Nc2ccncc2)c2ccccc2n1
3 | 578 nM | COc1cccc(Nc2nc(-c3ccccc3)nc3ccccc23)c1
4 | 285 nM | Brc1ccccc1-c1nc(Nc2ccncc2)c2ccccc2n1
5 | 170 nM | Clc1ccccc1-c1nc(Nc2ccncc2)c2ccccc2n1
6 | 439 nM | Fc1ccc(-c2nc(Nc3ccncc3)c3ccccc3n2)cc1
7 | 1200 nM | c1ccc(-c2nc(NCc3ccncc3)c3ccccc3n2)cc1
8 | 168 nM | Nc1ccc2nc(-c3ccccc3F)nc(Nc3ccncc3)c2c1
9 | 345 nM | Cc1ccccc1-c1nc(Nc2ccncc2)c2ccccc2n1

Same assay, conditions: concentration not given here

Row | SMILES | inhibition
10 | OCCc1ccc(Nc2nc(-c3ccccc3)nc3ccccc23)cc1 | 34%
11 | CN(C)c1ccc(CNc2nc(-c3ccccc3)nc3ccccc23)cc1 | 25%
12 | c1ccc(-c2nc(NCc3cccnc3)c3ccccc3n2)cc1 | 54%
13 | Clc1cccc(-c2nc(NCc3ccccc3)c3ccccc3n2)c1 | 37%
14 | c1ccc(-c2nc(Nc3ccncn3)c3ccccc3n2)cc1 | 97%
15 | c1ccc(-c2nc(Nc3cccc4[nH]ccc34)c3ccccc3n2)cc1 | 72%
16 | c1ccc(-c2nc(NCCc3ccccn3)c3ccccc3n2)cc1 | 16%
17 | c1ccc(Nc2nc(-c3ccccc3)nc3ccccc23)cc1 | 45%
18 | Oc1cccc(Nc2nc(-c3ccccc3)nc3ccccc23)c1 | 19%
19 | Fc1ccccc1-c1nc(Nc2ccncc2)c2cccnc2n1 | 97%
20 | Fc1ccc(F)c(CNc2nc(-c3ccccc3)nc3ccccc23)c1 | 63%
21 | c1ccc(-c2nc(Nc3ccc4[nH]ccc4c3)c3ccccc3n2)cc1 | 70%
22 | O=[N+]([O-])c1ccc2nc(-c3ccccc3F)nc(Nc3ccncc3)c2c1 | 91%
23 | Oc1ccccc1Nc1nc(-c2ccccc2)nc2ccccc12 | 28%
24 | c1ccc(-c2nc(Nc3ncccn3)c3ccccc3n2)cc1 | 3%
25 | CC(C)N(c1ccncc1)c1nc(-c2ccccc2)nc2ccccc12 | 69%
26 | COc1ccccc1Nc1nc(-c2ccccc2)nc2ccccc12 | 37%
27 | N#Cc1cccc(Nc2nc(-c3ccccc3)nc3ccccc23)c1 | 13%
28 | COc1cc2nc(-c3ccccc3Cl)nc(Nc3ccncc3)c2cc1OC | 97%

Further lines, results first:

Row | inhibition | SMILES
29 | 99% | Fc1ccccc1-c1nc(Nc2ccncc2)c2ccccc2n1
30 | 96% | COc1cccc(CNc2ccc3nc(-c4ccccc4F)nc(Nc4ccncc4)c3c2)c1
31 | 63% | Oc1ccc(Nc2nc(-c3ccccc3)nc3ccccc23)cc1
32 | 95% | COc1cccc(Nc2nc(-c3ccccc3)nc3ccccc23)c1
33 | 99% | Brc1ccccc1-c1nc(Nc2ccncc2)c2ccccc2n1
34 | 47% | COc1ccc(N(c2ccncc2)c2nc(-c3ccccc3)nc3ccccc23)cc1
35 | 16% | COc1ccc(Nc2nc(-c3ccccc3)nc3ccccc23)cc1
36 | 94% | Nc1ccc2c(Nc3ccncc3)nc(-c3ccccc3F)nc2c1
37 | 45% | c1ccc(-c2nc(Nc3cccnc3)c3ccccc3n2)cc1
38 | 100% | Clc1ccccc1-c1nc(Nc2ccncc2)c2ccccc2n1
39 | 92% | Fc1ccc(-c2nc(Nc3ccncc3)c3ccccc3n2)cc1
40 | 64% | c1ccc(-c2nc(NCc3ccncc3)c3ccccc3n2)cc1
41 | 51% | Clc1ccc(-c2nc(NCc3ccncc3)c3ccccc3n2)cc1
42 | 68% | Fc1cccc(-c2nc(Nc3ccncc3)c3ccccc3n2)c1
43 | 5% | COc1ccc(-c2nc(Nc3ccncc3)c3ccccc3n2)cc1
44 | 96% | COc1ccc(CNc2ccc3nc(-c4ccccc4F)nc(Nc4ccncc4)c3c2)cc1
45 | 10% | CCC(C)c1ccc(Nc2nc(-c3ccccc3)nc3ccccc23)cc1 (stereo not drawn)
46 | 97% | Fc1cccc(F)c1-c1nc(Nc2ccncc2)c2ccccc2n1
47 | 85% | Clc1cccc(Cl)c1-c1nc(Nc2ccncc2)c2ccccc2n1
48 | 99% | Cc1ccccc1-c1nc(Nc2ccncc2)c2ccccc2n1
